Entries after “also recorded” stand apart in the source; their conditions may differ.
Tests used:
[1] = system: formalin-induced flinching behavior; assay: Formalin pain model (flinching behavior); assay type: in vivo, rat; details: 60 min before formalin
Experimental: Effects of (3aR,6aS)-3a-(3,4-Dichlorophenyl)octahydrocyclopenta[c]pyrrole on acute and persistent inflammatory pain were evaluated in male rats. Pain was induced experimentally by application of a chemical irritant, formalin, which results in a biphasic behavioral response that includes both early (Phase 1, 0-9 minutes) and late (Phase 2, 10-60 minutes) phase flinching behavior. The early phase response is considered to be the result of C-fiber activation while the late phase appears to be dependent on the combination of an inflammatory response in the tissue and functional changes in the dorsal horn of the spinal cord.
Male rats (Sprague-Dawley, 272-315 g, Harlan) were housed 4 animals per cage in a temperature-controlled environment on a 12-hour light-dark cycle with food and water available ad libitum. Animals were allowed to acclimate to the facility for at least 5 days before testing. On the day of the study, a flexible, light-weight, ‘C’-shaped metal band was applied to one hind paw and the rat was dosed orally (PO, 3 mL/kg, via gavage) or intraperitoneally (IP, 1 mL/kg) with vehicle (50 mM acetate buffer (pH 4.5)), (3aR,6aS)-3a-(3,4-dichlorophenyl)octahydrocyclopenta[c]pyrrole or gabapentin. […] Formalin-induced flinching behavior was recorded for 60 minutes.

[2] = Brain and plasma levels following oral administration; assay type: in vivo; details: 10 mg/kg

SMILES	effect on formalin-induced flinching behavior (positive control) ([1]; male rats, 100 mg/kg IP)	levels of tested compounds in brain (order of lines in FIG. 1) [2]	ratio of brain and plasma levels (order of lines in FIG. 2) [2]	effect on formalin-induced flinching behavior ([1]; male rats, 3, 10 and 30 mg/kg PO, phase I 0-9 min, phase II 10-60 min)
NCC1(CC(=O)O)CCCCC1 [Gabapentin, reference compound]	significant and selective attenuation of phase II formalin-induced flinching behavior	–	–	–
CN1C[C@@H]2CCCC[C@]2(c2ccc(Cl)c(Cl)c2)C1 [(3aS,7aR)-3a-(3,4-Dichlorophenyl)-2-methyloctahydro-1H-isoindole]	–	second line	top line	–
Clc1ccc([C@@]23CCC[C@@H]2CNC3)cc1Cl [(3aR,6aS)-3a-(3,4-Dichlorophenyl)octahydrocyclopenta[c]pyrrole]	–	–	–	significant, dose-related decrease in flinching behavior during phases I and II; also recorded: significantly and dose-dependently attenuated formalin-induced flinching behavior in a non-selective manner
CN1C[C@H]2CCC[C@@]2(c2ccc(Cl)c(Cl)c2)C1 [(3aR,6aS)-3a-(3,4-dichlorophenyl)-2-methyloctahydrocyclopenta[c]pyrrole]	–	fourth line	fourth line	–
CN1C[C@@H]2CCC[C@]2(c2ccc(Cl)c(Cl)c2)C1 [(3aS,6aR)-3a-(3,4-dichlorophenyl)-2-methyloctahydrocyclopenta[c]pyrrole]	–	third line	third line	–
CN1C[C@H]2CCCC[C@@]2(c2ccc(Cl)c(Cl)c2)C1 [(3aR,7aS)-3a-(3,4-Dichlorophenyl)-2-methyloctahydro-1H-isoindole]	–	top line	second line	–
